How the values were obtained:
[1] = Inhibition of snail beta-mannosidase using p-nitrophenyl glycoside as substrate assessed as release of p-nitrophenol measured by spectrometric assay; set-up: species or system Helix pomatia
[2] = Inhibition of rice alpha-glucosidase using p-nitrophenyl glycoside as substrate assessed as release of p-nitrophenol measured by spectrometric assay; set-up: species or system Oryza sativa; conditions: read-out: IC50
Beta-glucuronidase = Beta-glucuronidase (Escherichia coli (strain K12), UniProt P05804); assay: Inhibition of Escherichia coli beta-glucuronidase using p-nitrophenyl glycoside as substrate assessed as release of p-nitrophenol measured by spectrometric assay
[3] = target: Beta-glucuronidase (Escherichia coli (strain K12)) (UniProt P05804); assay: Inhibition of Escherichia coli beta-glucuronidase using p-nitrophenyl glycoside as substrate assessed as release of p-nitrophenol at 1000 uM measured by spectrometric assay relative to control
[4] = target: T1, Sucrase-isomaltase, intestinal (Rattus norvegicus, UniProt P23739); assay: Inhibition of rat intestinal isomaltase using p-nitrophenyl glycoside as substrate assessed as release of p-nitrophenol measured by spectrometric assay
[5] = Inhibition of almond beta-glucosidase using p-nitrophenyl glycoside as substrate assessed as release of p-nitrophenol measured by spectrometric assay; set-up: species or system Prunus dulcis
[6] = Inhibition of porcine kidney alpha-trehalase using p-nitrophenyl glycoside as substrate assessed as release of p-nitrophenol measured by spectrometric assay; set-up: species or system Sus scrofa
[7] = Inhibition of rat intestinal maltase using maltose as substrate assessed as release of D-glucose measured by spectrometric assay
[8] = target: T2, Tissue alpha-L-fucosidase (Bos taurus) (UniProt Q2KIM0); assay: Inhibition of bovine kidney alpha-L-fucosidase using p-nitrophenyl glycoside as substrate assessed as release of p-nitrophenol at 1000 uM measured by spectrometric assay relative to control; type: tissue-based
T2 sequence (whole entry): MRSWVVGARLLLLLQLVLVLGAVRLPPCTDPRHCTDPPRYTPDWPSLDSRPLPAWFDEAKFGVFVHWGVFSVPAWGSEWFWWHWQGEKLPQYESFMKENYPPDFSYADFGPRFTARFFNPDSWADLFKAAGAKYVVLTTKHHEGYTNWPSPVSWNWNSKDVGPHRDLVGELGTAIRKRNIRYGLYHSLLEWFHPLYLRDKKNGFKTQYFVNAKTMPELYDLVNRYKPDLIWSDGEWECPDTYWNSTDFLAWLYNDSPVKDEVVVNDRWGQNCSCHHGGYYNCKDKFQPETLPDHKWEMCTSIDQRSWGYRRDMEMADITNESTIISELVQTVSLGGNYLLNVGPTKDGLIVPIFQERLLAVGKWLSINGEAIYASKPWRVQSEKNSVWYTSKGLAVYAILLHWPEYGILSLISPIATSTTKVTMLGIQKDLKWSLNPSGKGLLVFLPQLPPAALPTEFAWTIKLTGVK

Helix pomatia = assay: Inhibition of snail beta-mannosidase using p-nitrophenyl glycoside as substrate assessed as release of p-nitrophenol at 1000 uM measured by spectrometric assay relative to control
[9] = target: Alpha-galactosidase (Coffea arabica) (UniProt Q42656); assay: Inhibition of coffee beans alpha-galactosidase using p-nitrophenyl glycoside as substrate assessed as release of p-nitrophenol at 1000 uM measured by spectrometric assay relative to control
[10] = target: T1, Sucrase-isomaltase, intestinal; assay: Inhibition of rat intestinal sucrase using p-nitrophenyl glycoside as substrate assessed as release of p-nitrophenol measured by spectrometric assay
Sus scrofa = species on record: Sus scrofa; assay: Inhibition of porcine kidney alpha-trehalase using p-nitrophenyl glycoside as substrate assessed as release of p-nitrophenol at 1000 uM measured by spectrometric assay relative to control
[11] = target: T3, Alpha-mannosidase (Canavalia ensiformis) (UniProt C0HJB3); assay: Inhibition of jack bean alpha-mannosidase using p-nitrophenyl glycoside as substrate assessed as release of p-nitrophenol at 1000 uM measured by spectrometric assay relative to control
T3 sequence (whole entry): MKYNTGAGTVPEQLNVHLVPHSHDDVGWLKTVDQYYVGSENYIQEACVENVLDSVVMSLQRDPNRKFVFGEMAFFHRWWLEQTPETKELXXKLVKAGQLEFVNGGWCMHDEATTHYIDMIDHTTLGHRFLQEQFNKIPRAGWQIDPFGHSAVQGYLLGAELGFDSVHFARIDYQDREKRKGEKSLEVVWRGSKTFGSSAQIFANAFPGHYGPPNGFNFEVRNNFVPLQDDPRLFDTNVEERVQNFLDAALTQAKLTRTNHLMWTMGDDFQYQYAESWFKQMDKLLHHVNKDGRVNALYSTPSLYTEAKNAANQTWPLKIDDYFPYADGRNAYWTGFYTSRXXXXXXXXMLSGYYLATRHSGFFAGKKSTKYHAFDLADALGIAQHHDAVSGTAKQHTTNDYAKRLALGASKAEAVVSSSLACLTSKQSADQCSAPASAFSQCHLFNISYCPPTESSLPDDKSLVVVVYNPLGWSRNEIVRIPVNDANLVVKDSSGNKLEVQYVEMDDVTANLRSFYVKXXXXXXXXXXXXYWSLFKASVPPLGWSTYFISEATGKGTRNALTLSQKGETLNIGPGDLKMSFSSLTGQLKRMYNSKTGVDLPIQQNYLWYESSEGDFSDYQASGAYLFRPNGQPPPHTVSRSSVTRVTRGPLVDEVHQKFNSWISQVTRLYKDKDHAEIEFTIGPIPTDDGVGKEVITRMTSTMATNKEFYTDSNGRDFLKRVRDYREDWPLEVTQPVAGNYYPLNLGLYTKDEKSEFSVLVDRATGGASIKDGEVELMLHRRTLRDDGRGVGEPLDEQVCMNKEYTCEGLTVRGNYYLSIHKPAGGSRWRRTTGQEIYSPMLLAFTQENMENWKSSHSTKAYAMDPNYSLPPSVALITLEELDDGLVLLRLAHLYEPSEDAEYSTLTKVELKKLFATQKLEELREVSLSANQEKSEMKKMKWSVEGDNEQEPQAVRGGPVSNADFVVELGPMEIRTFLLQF

Bos taurus [12] = species on record: Bos taurus; assay: Inhibition of bovine liver beta-glucosidase using p-nitrophenyl glycoside as substrate assessed as release of p-nitrophenol at 1000 uM measured by spectrometric assay relative to control; type: tissue-based
[13] = target: T4, Tissue alpha-L-fucosidase (Bos taurus, UniProt Q2KIM0); assay: Inhibition of bovine kidney alpha-L-fucosidase using p-nitrophenyl glycoside as substrate assessed as release of p-nitrophenol measured by spectrometric assay
T4 sequence (Q2KIM0 whole entry): T2 sequence (whole entry)

Bos taurus [14] = species on record: Bos taurus; assay: Inhibition of bovine liver beta-galactosidase using p-nitrophenyl glycoside as substrate assessed as release of p-nitrophenol at 1000 uM measured by spectrometric assay relative to control
[15] = Inhibition of bovine liver beta-galactosidase using p-nitrophenyl glycoside as substrate assessed as release of p-nitrophenol measured by spectrometric assay; type: tissue-based, Bos taurus
Rattus norvegicus = species on record: Rattus norvegicus; assay: Inhibition of rat intestinal maltase using maltose as substrate assessed as release of D-glucose at 1000 uM measured by spectrometric assay
[16] = Inhibition of bovine liver beta-glucosidase using p-nitrophenyl glycoside as substrate assessed as release of p-nitrophenol measured by spectrometric assay; set-up: species or system Bos taurus
Alpha-galactosidase = Alpha-galactosidase (Coffea arabica, UniProt Q42656); assay: Inhibition of coffee beans alpha-galactosidase using p-nitrophenyl glycoside as substrate assessed as release of p-nitrophenol measured by spectrometric assay
Penicillium decumbens = assay: Inhibition of Penicillium decumbens alpha-L-rhamnosidase using p-nitrophenyl glycoside as substrate assessed as release of p-nitrophenol at 1000 uM measured by spectrometric assay relative to control
Aspergillus niger = assay: Inhibition of Aspergillus niger amyloglucosidase using p-nitrophenyl glycoside as substrate assessed as release of p-nitrophenol at 1000 uM measured by spectrometric assay relative to control
[17] = Inhibition of Penicillium decumbens alpha-L-rhamnosidase using p-nitrophenyl glycoside as substrate assessed as release of p-nitrophenol measured by spectrometric assay
Prunus dulcis = assay: Inhibition of almond beta-glucosidase using p-nitrophenyl glycoside as substrate assessed as release of p-nitrophenol at 1000 uM measured by spectrometric assay relative to control
[18] = Inhibition of Aspergillus niger amyloglucosidase using p-nitrophenyl glycoside as substrate assessed as release of p-nitrophenol measured by spectrometric assay
[19] = Inhibition of jack bean alpha-mannosidase using p-nitrophenyl glycoside as substrate assessed as release of p-nitrophenol measured by spectrometric assay; set-up: species or system Canavalia ensiformis

Beta-glucuronidase, sequence (P05804 whole entry): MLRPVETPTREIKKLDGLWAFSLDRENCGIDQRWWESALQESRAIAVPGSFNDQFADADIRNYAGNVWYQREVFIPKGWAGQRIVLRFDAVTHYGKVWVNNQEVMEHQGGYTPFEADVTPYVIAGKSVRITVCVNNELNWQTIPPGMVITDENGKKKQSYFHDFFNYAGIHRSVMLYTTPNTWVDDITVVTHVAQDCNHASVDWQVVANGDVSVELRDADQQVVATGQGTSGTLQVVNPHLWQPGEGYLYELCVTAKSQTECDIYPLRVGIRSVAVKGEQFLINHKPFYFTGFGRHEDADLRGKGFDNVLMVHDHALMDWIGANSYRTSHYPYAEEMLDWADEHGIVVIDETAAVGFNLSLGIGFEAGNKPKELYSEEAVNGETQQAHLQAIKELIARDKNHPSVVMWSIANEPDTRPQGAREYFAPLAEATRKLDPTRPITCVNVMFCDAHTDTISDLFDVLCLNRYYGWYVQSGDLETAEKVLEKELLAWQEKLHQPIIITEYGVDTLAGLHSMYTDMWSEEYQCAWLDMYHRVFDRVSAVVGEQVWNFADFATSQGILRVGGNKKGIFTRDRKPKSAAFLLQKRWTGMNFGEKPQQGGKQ
Beta-glucuronidase (Escherichia coli (strain K12)), sequence (P05804 whole entry, looked up): as the sequence (P05804 whole entry) above
Alpha-galactosidase (Coffea arabica), sequence (Q42656 16-378 limits assumed): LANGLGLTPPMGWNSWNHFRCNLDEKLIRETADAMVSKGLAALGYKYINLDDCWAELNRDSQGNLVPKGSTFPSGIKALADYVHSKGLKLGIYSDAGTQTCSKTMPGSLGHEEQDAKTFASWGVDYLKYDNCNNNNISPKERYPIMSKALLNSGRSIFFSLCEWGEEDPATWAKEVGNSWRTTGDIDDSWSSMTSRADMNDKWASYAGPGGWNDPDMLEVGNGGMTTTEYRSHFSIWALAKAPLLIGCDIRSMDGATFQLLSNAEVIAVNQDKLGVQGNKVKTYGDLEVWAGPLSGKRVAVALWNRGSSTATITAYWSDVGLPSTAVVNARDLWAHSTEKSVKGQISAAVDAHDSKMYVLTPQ
Alpha-galactosidase, sequence (Q42656 whole entry): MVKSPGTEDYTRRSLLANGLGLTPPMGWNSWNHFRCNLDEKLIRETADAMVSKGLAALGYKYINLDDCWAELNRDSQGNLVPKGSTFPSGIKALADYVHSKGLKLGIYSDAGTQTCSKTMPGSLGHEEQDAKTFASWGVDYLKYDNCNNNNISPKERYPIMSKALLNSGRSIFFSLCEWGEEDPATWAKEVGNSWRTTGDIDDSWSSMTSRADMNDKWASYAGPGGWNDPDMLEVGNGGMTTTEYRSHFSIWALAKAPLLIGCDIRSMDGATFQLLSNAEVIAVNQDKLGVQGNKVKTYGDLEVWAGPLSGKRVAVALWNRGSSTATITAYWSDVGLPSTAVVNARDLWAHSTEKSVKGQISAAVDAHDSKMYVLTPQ
T1 sequence (P23739 1-1013 limits assumed): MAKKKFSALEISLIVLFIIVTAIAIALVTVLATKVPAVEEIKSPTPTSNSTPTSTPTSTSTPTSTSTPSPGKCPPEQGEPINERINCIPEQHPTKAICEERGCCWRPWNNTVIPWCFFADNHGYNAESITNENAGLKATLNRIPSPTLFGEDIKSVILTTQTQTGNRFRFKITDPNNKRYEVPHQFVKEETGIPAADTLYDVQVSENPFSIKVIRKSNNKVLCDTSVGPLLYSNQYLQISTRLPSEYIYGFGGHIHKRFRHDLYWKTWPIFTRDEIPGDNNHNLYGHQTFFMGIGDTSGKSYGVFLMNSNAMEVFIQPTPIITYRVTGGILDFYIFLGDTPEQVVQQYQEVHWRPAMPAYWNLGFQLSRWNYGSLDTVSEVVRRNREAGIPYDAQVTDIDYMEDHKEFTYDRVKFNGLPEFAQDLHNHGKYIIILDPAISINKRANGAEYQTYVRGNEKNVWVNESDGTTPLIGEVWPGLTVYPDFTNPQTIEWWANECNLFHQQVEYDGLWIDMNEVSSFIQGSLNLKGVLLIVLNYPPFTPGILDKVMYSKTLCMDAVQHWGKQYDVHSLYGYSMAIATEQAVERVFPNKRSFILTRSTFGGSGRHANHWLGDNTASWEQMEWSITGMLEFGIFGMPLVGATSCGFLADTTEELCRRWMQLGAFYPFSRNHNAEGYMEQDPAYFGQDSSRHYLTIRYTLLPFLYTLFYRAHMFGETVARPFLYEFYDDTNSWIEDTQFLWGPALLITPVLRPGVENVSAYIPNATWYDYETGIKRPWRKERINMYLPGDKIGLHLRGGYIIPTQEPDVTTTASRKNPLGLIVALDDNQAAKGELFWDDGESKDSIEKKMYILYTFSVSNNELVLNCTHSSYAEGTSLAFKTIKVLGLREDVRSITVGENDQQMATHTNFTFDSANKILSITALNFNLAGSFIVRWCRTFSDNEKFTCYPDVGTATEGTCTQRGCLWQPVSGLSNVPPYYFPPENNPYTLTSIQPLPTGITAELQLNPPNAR
T1 sequence (P23739 1014-1841 limits assumed): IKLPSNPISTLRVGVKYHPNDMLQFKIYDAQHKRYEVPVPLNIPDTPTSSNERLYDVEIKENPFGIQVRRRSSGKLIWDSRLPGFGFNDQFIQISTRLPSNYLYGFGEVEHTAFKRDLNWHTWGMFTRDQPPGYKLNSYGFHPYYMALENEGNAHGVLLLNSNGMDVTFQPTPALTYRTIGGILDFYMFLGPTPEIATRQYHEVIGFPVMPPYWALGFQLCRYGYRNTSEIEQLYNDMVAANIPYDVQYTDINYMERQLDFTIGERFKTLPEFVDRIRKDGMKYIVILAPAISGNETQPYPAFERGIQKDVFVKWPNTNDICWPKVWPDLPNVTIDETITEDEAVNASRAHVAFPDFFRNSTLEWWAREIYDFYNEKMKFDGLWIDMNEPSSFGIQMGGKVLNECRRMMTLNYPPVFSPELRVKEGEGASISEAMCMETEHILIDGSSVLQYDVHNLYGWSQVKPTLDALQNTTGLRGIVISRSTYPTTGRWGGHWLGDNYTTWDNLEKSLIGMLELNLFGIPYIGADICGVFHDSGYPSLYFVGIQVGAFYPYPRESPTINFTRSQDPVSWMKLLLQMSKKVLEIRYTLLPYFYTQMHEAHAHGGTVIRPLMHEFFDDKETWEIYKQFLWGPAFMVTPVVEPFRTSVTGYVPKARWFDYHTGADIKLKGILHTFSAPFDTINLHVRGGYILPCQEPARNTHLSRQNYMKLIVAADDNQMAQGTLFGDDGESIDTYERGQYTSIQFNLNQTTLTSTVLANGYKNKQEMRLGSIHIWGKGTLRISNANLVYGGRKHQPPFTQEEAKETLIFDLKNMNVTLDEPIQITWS

SMILES | IC50 [1] | IC50 [2] | IC50 (Beta-glucuronidase) | inhibition [3] | IC50 [4] | IC50 [5] | IC50 [6] | IC50 [7] | inhibition [8] | inhibition (Helix pomatia) | inhibition [9] | inhibition (Sus scrofa) | inhibition [11] | inhibition (Bos taurus [12]) | IC50 [13] | inhibition (Bos taurus [14]) | IC50 [15] | inhibition (Rattus norvegicus) | IC50 [16] | IC50 (Alpha-galactosidase) | further results
CCCCC[C@@]1(CO)NC[C@H](O)[C@@H](O)[C@@H]1O.Cl | Not Active | 48 µM | Not Active | 3.9% | Not Active | Not Active | Not Active | 156 µM | 0% | 4% | 1.7% | 5.3% | 1.2% | 9.2% | Not Active | 18.7% | Not Active | 15.1% | Not Active | Not Active | IC50 [10]: Not Active; inhibition (Penicillium decumbens): 0%; inhibition (Aspergillus niger): 0%; IC50 [17]: Not Active; inhibition (Prunus dulcis): 4.4%; IC50 [18]: Not Active; IC50 [19]: Not Active
CCCCCCCC[C@@]1(CO)NC[C@H](O)[C@@H](O)[C@@H]1O.Cl | Not Active | 123 µM | Not Active | 9.4% | Not Active | Not Active | Not Active | 224 µM | 5.5% | 4.9% | 3.3% | 0% | 9.6% | 19% | Not Active | 44.9% | Not Active | 23.2% | Not Active | Not Active | IC50 [10]: Not Active; inhibition (Penicillium decumbens): 6%; inhibition (Aspergillus niger): 0.83%; IC50 [17]: Not Active; inhibition (Prunus dulcis): 14.8%; IC50 [18]: Not Active; IC50 [19]: Not Active
CCC[C@@]1(CO)NC[C@H](O)[C@@H](O)[C@@H]1O.Cl | Not Active | 82 µM | Not Active | 42.1% | Not Active | Not Active | Not Active | 134 µM | 30.4% | 4.9% | 9.6% | 2.7% | 13.8% | 9.1% | Not Active | 15.4% | Not Active | 0% | Not Active | Not Active | IC50 ([10]; read-out: IC50): 94 µM; inhibition (Penicillium decumbens): 2.7%; inhibition (Aspergillus niger): 2.3%; IC50 [17]: Not Active; inhibition (Prunus dulcis): 19.5%; IC50 [18]: Not Active; IC50 [19]: Not Active
CCCCCC[C@@]1(CO)NC[C@H](O)[C@@H](O)[C@@H]1O.Cl | Not Active | 257 µM | Not Active | 17.2% | Not Active | Not Active | Not Active | 272 µM | 0.9% | 2.8% | 8% | 3.4% | 6.7% | 15.7% | Not Active | 24.8% | Not Active | 11.6% | Not Active | Not Active | IC50 [10]: Not Active; inhibition (Penicillium decumbens): 1.5%; inhibition (Aspergillus niger): 13.2%; IC50 [17]: Not Active; inhibition (Prunus dulcis): 2.5%; IC50 [18]: Not Active; IC50 [19]: Not Active

Source: ChEMBL document CHEMBL4828725 (Eur J Med Chem, 2021)
